Structures can show the parent of a compound that is named as a salt.
Row | Structure (SMILES) | melting point
1 | O=C(NCCCCN1CCN(c2ccc(C(F)(F)F)cc2)CC1)C1=Cc2ccccc2OC1 (as salt: HCl) [Example 15, 2-H-Chromene-3-carboxylic acid {4-[4-(4-trifluoromethylphenyl)-piperazin-1-yl]-butyl}-amide] | 261.9 °C
2 | O=C(NCCCCN1CCN(c2cccc(C(F)(F)F)c2)CC1)C1=Cc2ccccc2OC1 (as salt: HCl) [Example 16, 2H-Chromene-3-carboxylic acid {4-[4-(3-trifluoromethylphenyl)-piperazin-1-yl]-butyl}-amide] | 234 °C
3 | O=C(NCCCCN1CCN(c2ccc(Cl)cc2)CC1)C1=Cc2ccccc2OC1 (as salt: HCl) [Example 5, 2H-Chromene-3-carboxylic acid {4-[4-(4-chlorophenyl)-piperazin-1-yl]-butyl}-amide] | 236 °C
4 | N#Cc1ccccc1N1CCN(CCCCNC(=O)C2=Cc3ccccc3OC2)CC1 (as salt: HCl) [Example 12, 2H-Chromene-3-carboxylic acid {4-[4-(2-cyanophenyl)-piperazin-1-yl]-butyl}-amide] | 194 °C
5 | O=C(NCCCCN1CCN(c2ccccc2Cl)CC1)C1=Cc2ccccc2OC1 (as salt: HCl) [Example 7, 2H-Chromene-3 carboxylic acid {4-[4-(2-chlorophenyl)-piperazin-1-yl]-butyl}-amide] | 201 °C
6 | O=C(NCCCCN1CCN(c2cccc(Cl)c2Cl)CC1)C1=Cc2ccccc2OC1 (as salt: hydrochloride) [Example 2, 2H-Chromene-3-carboxylic acid {4-[4-(2,3-dichlorophenyl)-piperazin-1-yl]-butyl}-amide] | 201 °C
7 | O=C(NCCCCN1CCN(c2cccc(Cl)c2)CC1)C1=Cc2ccccc2OC1 (as salt: HCl) [Example 6, 2H-Chromene-3-carboxylic acid {4-[4-(3 chlorophenyl)-piperazin-1-yl]-butyl}-amide] | 216 °C
8 | O=C(NCCCCN1CCN(c2ccc(F)cc2)CC1)C1=Cc2ccccc2OC1 (as salt: HCl) [Example 8, 2H Chromene-3-carboxylic acid {4-[4-(4 fluorophenyl)-piperazin-1-yl]-butyl}-amide] | 243 °C
9 | Cc1ccc(N2CCN(CCCCNC(=O)C3=Cc4ccccc4OC3)CC2)c(C)c1 (as salt: HCl) [Example 10, 2H-Chromene-3-carboxylic acid {4-[4-(2,4-dimethylphenyl)-piperazin-1-yl]-butyl}-amide] | 207 °C
10 | O=C(NCCCCN1CCN(c2ccccc2)CC1)C1=Cc2ccccc2OC1 (as salt: HCl) [Example 4, 2H-Chromene-3-carboxylic acid {4-(4-phenylpiperazin-1-yl)-butyl}-amide] | 239 °C
11 | O=C(NCCCCN1CCN(c2ccccc2F)CC1)C1=Cc2ccccc2OC1 (as salt: HCl) [Example 3, 2-H-Chromene-3-carboxylic acid {4-[4-(2-fluorophenyl)-piperazin-1-yl]-butyl}-amide] | 231 °C

Other lines, results leading:

Row | melting point | Structure (SMILES)
12 | 176 °C | COc1ccccc1N1CCN(CCCCNC(=O)C2=Cc3c(Br)ccc(OC)c3OC2)CC1 (as salt: HCl) [Example 50, 5-Bromo-8-methoxy-2H-chromene-3-carboxylic acid {4-[4-(2-methoxyphenyl)piperazin-1-yl]-butyl}-amide]
13 | 205 °C | COc1ccc(Br)c2c1OCC(C(=O)NCCCCN1CCN(c3cccc(Cl)c3Cl)CC1)=C2 (as salt: HCl) [Example 51, 5-Bromo 8 methoxy-2H-chromene-3-carboxylic acid {4-[4-(2,3-dichlorophenyl)-piperazin-1-yl]-butyl}-amide]
14 | 155 °C | COc1ccc(Br)c2c1OCC(C(=O)NCCCCN1CCN(c3cccc(C#N)c3)CC1)=C2 (as salt: HCl) [Example 52, 5-Bromo-8-methoxy-2H-chromene-3-carboxylic acid {4-[4-(3-cyanophenyl)piperazin-1-yl]-butyl}-amide]
15 | 159 °C | COc1ccc2c(c1)C=C(C(=O)NCCCCN1CCN(c3cccc(C#N)c3)CC1)CO2 (as salt: HCl) [Example 57, 6-Methoxy-2H-chromene-3-carboxylic acid {4-[4-(3-cyanophenyl)-piperazin-1-yl]-butyl}-amide]
16 | 208 °C | COc1ccccc1N1CCN(CCCCNC(=O)C2=Cc3ccccc3SC2)CC1 (as salt: HCl) [Example 34, 2H-Thiochromene-3-carboxylic acid {4-[4-(2-methoxyphenyl)piperazin-1-yl]-butyl}-amide]
17 | 182 to 184 °C | O=C(NCCCCN1CCN(c2cccc(O)c2)CC1)C1=Cc2ccccc2SC1 (as salt: HCl) [Example 41, 2H-Thiochromene-3-carboxylic acid {4-[4-(3-hydroxyphenyl)-piperazin-1-yl]-butyl}-amide]
18 | 205 °C | COc1ccc2c(c1)C=C(C(=O)NCCCCN1CCN(c3cccc(Cl)c3Cl)CC1)CO2 (as salt: HCl) [Example 55, 6-Methoxy-2H-chromene-3-carboxylic acid {4-[4-(2,3-dichlorophenyl)-piperazin-1-yl]-butyl}-amide]
19 | 209 °C | N#Cc1cccc(N2CCN(CCCCNC(=O)C3=Cc4ccccc4SC3)CC2)c1 (as salt: HCl) [Example 35, 2H-Thiochromene-3-carboxylic acid {4-[4-(3-cyanophenyl)-piperazin-1-yl]-butyl}-amide]
20 | 194 °C | O=C(NCCCCN1CCN(c2cccc(CO)c2)CC1)C1=Cc2ccccc2OC1 (as salt: HCl) [Example 46, 2H-chromene-3-carboxylic acid {4-[4-(3-hydroxymethylphenyl)-piperazin-1-yl]-butyl}-amide]
21 | 157 °C | COc1ccc(Br)c2c1OCC(C(=O)NCCCCN1CCN(c3ccccc3F)CC1)=C2 (as salt: hydrochloride) [Example 49, 5-Bromo-8-methoxy-2H-chromene-3-carboxylic acid {4-[4 (2-fluorophenyl)-piperazin-1-yl]-butyl}-amide hydrochloride]
22 | 189 °C | O=C(NCCCCN1CCN(c2ccccc2O)CC1)C1=Cc2ccccc2OC1 (as salt: HCl) [Example 58, 2H-Chromene-3-carboxylic acid {4-[4-(2-hydroxyphenyl)-piperazin-1-yl]-butyl}-amide]
23 | 213 °C | COc1cc(OC)cc(N2CCN(CCCCNC(=O)C3=Cc4ccccc4OC3)CC2)c1 (as salt: hydrochloride) [Example 23, 2H-Chromene 3 carboxylic acid {4-[4-(3,5-dimethoxyphenyl)piperazin-1-yl]-butyl}-amide hydrochloride]
24 | 120 °C (dec.) | N#Cc1cccc(N2CCN(CCCCNC(=O)C3=Cc4cc(Cl)ccc4OC3)CC2)c1 (as salt: HCl) [Example 31, 6-Chloro-2H-chromene-3-carboxylic acid {4-[4-(3-cyanophenyl)-piperazin-1-yl]-butyl}-amide]
25 | 215 °C | O=C(NCCCCN1CCN(c2cccc(Cl)c2Cl)CC1)C1=Cc2ccccc2SC1 (as salt: HCl) [Example 32, 2H-thiochromene-3-carboxylic acid {4-[4-(2,3-dichlorophenyl)piperazin-1-yl]-butyl}-amide]
